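These data come from cells grown in 96-well plates and exposed to compound for 48 hours at five concentrations. At the GI50, growth is halved. TGI marks complete inhibition of growth.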
Key:
Assay in all cases: NCI anticancer screen, dose series, 48 h
A498 renal = test system: A498 renal
DU-145 prostate = test system: DU-145 prostate
K-562 leukemia = test system: K-562 leukemia
MDA-MB-231 breast = test system: MDA-MB-231 breast
MDA-MB-435 = test system: MDA-MB-435
NCI-H23 lung = test system: NCI-H23 lung
OVCAR-3 ovarian = test system: OVCAR-3 ovarian
SK-MEL-2 melanoma = test system: SK-MEL-2 melanoma
TK-10 renal = test system: TK-10 renal
UO-31 renal = test system: UO-31 renal

| Compound | GI50 (A498 renal) [µM] | TGI (A498 renal) [µM] | GI50 (DU-145 prostate) [µM] | TGI (DU-145 prostate) [µM] | GI50 (K-562 leukemia) [µM] | TGI (K-562 leukemia) [µM] | GI50 (MDA-MB-231 breast) [µM] | TGI (MDA-MB-231 breast) [µM] | GI50 (MDA-MB-435) [µM] | TGI (MDA-MB-435) [µM] | GI50 (NCI-H23 lung) [µM] | TGI (NCI-H23 lung) [µM] | GI50 (OVCAR-3 ovarian) [µM] | TGI (OVCAR-3 ovarian) [µM] | GI50 (SK-MEL-2 melanoma) [µM] | TGI (SK-MEL-2 melanoma) [µM] | GI50 (TK-10 renal) [µM] | TGI (TK-10 renal) [µM] | GI50 (UO-31 renal) [µM] | TGI (UO-31 renal) [µM] |
| --- | --- | --- | --- | --- | --- | --- | --- | --- | --- | --- | --- | --- | --- | --- | --- | --- | --- | --- | --- | --- |
| Oc1c(CN2CCN(c3ccccc3F)CC2)cc(Br)c2cccnc12 | 0.695 | 9.23 | 1.71 | 17.7 | 0.366 | 19.6 | 0.902 | 15.2 | 1.31 | > 100 | 1.33 | 25.2 | 0.576 | 21.2 | 7.65 | > 51.6 | 5.45 | 29 | 0.259 | 3.58 |
| COc1ccc2c(c1)C(=O)c1c-2c(NCCN(C)C)nc2ccccc12 | 11.3 | 24.6 | 2.95 | 17.5 | 2.62 | 14.8 | 6.59 | 19.9 | 5.06 | 20.4 | – | – | 2.29 | 9.34 | 15.7 | 31 | 8.19 | 28.8 | 9.98 | 22 |
| O=S(=O)(Nc1ccccn1)c1ccc(N=Nc2ccc(O)c3ncccc23)cc1 | 1.77 | 5.73 | 3.22 | 26.7 | 0.734 | > 37.7 | 1.11 | 6.03 | 0.638 | 8.41 | 2.34 | 16 | 1.13 | 11.4 | 0.463 | 1.64 | 2.82 | 7.31 | 0.696 | 3.33 |
| C[C@@H]1OCC2(CCN(c3cnc(Sc4ccnc(N)c4Cl)c(N)n3)CC2)[C@@H]1N | 0.128 | 4.6 | > 67.8 | > 100 | 0.397 | > 100 | > 100 | > 100 | > 100 | > 100 | 1.34 | > 100 | > 100 | > 100 | > 100 | > 100 | 0.253 | > 100 | 0.926 | > 100 |
| Nc1ccc(-c2ccc(-c3nc4cc(Cl)c(Cl)cc4[nH]3)cc2)cc1 | 18 | > 70.7 | 2.36 | 98.4 | 4.32 | > 100 | 3.34 | > 49.6 | 0.199 | > 84.7 | 20.1 | > 100 | 0.944 | – | 2.46 | > 100 | 1.63 | 37.4 | 0.674 | 13.3 |
| O=c1ccnc(SCc2ccc(Cl)cc2)[nH]1 | – | > 100 | – | > 100 | – | > 100 | – | > 100 | – | > 100 | – | > 100 | – | > 100 | – | > 100 | – | > 100 | – | > 100 |
| Nc1c2ccccc2nc2ccccc12 (tested in a mixture with another compound) | 1.12 | 2.62 | 2.38 | 6.51 | 3.81 | 12.1 | 1.5 | 5.84 | 2.57 | 9 | 1.94 | 5.68 | 2.29 | 6.15 | 2.16 | 4.23 | 1.97 | 5.34 | 1.41 | 3.84 |
| Nc1nc(-c2ccccc2)cc(-c2ccc(Cl)cc2)c1-c1nc2ccccc2o1 | 16.7 | 30.3 | 12.8 | 26 | 10.9 | 29.3 | 6 | 18.9 | 17.6 | 35.3 | 23.5 | > 100 | 15.7 | 30.8 | 18 | 37.9 | 11.3 | 27.1 | 8.36 | 21.3 |
| COc1cc(N2CCC(N3CCN(C)CC3)CC2)ccc1Nc1ncc(Cl)c(Nc2ccccc2S(=O)(=O)C(C)C)n1 | 0.263 | 1.73 | 1.46 | 7.88 | 1.67 | 5.41 | 0.705 | 2.43 | 0.387 | 2.36 | 1.05 | 8.1 | 2.22 | 6.87 | 1.33 | 3.45 | 0.79 | 2.43 | 1.12 | 2.44 |
| CC(C)(C)c1cc(-c2nc3c(F)c(F)c(F)c(F)c3[nH]2)cc(C(C)(C)C)c1O | > 100 | > 100 | > 100 | > 100 | > 100 | > 100 | > 100 | > 100 | > 100 | > 100 | – | – | > 100 | > 100 | > 100 | > 100 | > 100 | > 100 | > 100 | > 100 |
| Cc1ccc(C2=NN(c3ccc(S(N)(=O)=O)cc3)C(c3cn(-c4ccccc4)nc3-c3ccccc3)C2)cc1 (centres undefined) | 1.84 | 5.19 | 67.9 | > 100 | 3.82 | > 100 | 9.41 | 84.4 | 10 | > 100 | 14.1 | > 100 | 14.3 | > 100 | 43.7 | > 100 | 71.2 | > 100 | 5.38 | > 100 |
| COc1cc2c3c(n(CCCN4CCCC(O)C4)c(=O)c2cc1OC)-c1cc2c(cc1C3=O)OCO2 (centres undefined) | 7.73 | 25.1 | < 0.005 | 0.592 | 0.0881 | 6.87 | 0.791 | 1.62 | 0.836 | 2.98 | 0.0421 | 0.775 | 2.14 | 4.71 | 2.68 | 28.4 | 6.38 | 14.2 | 0.96 | 2.24 |
| CCN(CC)CC[n+]1cc2cc(OC)c(OC)cc2c2ccc3cc4c(cc3c21)OCO4 | 0.514 | 2.92 | 0.337 | 1.96 | 0.288 | – | 0.709 | 2.71 | 0.675 | 2.14 | 0.618 | 2.3 | 0.96 | 2.33 | 1.64 | 4.59 | 1.81 | 5.28 | 2.61 | 8.6 |

From PubChem BioAssay (NCI)
